Experiment: gradient 5% acetonitrile 3 min, to 50% in 2 min, to 85% in 15 min, held 3 min, 100 µL/min
Conditions: column: Zorbax Extend-C18 2.1 x 50 mm; eluents: water / acetonitrile, 0.1% formic acid
Procedure, shortened: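 The system's dead and dwell volumes were 40 μL and 900 μL, with a Zorbax Extend-C18 column (2.1 × 50 mm, 1.8 μm) run at 100 μL/min in water and acetonitrile containing 0.1% formic acid each. Pure standards were analyzed in mixtures of ~100 molecules by HPLC–quadrupole time-of-flight mass spectrometry in positive and negative ionization mode. Retention time was assigned from computationally picked, manually inspected adduct peaks.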

SMILES | RP-LC retention time
CCn1cc(-c2nc(CC(=O)NCc3ccccc3)cs2)c2cccnc21 | 840 s
CCOc1ncccc1C(=O)NCc1cc(-c2cccs2)on1 | 831 s
O=[N+]([O-])c1ccc(/C=C\c2ccncc2)cc1 | 685 s
CC(C)NC(=O)C1CCN(c2nc3ccc(-c4cccc(F)c4)nc3s2)CC1 | 942 s
Cc1csc(-c2cc(S(=O)(=O)N3CCCCCC3)c(C)n2C)n1 | 1100 s
Cc1cc(NC(=O)c2ncccn2)no1 | 577 s
CCn1nccc1-c1cccc(-c2noc(-c3cccs3)n2)c1 | 1130 s
COc1ccc2c(C)c(CCC(=O)N3CCC(C(N)=O)CC3)c(=O)oc2c1C | 670 s
Cc1cc([N+](=O)[O-])nn1CC(=O)NCc1cccs1 | 572 s
Cc1ccc(CNC(=O)C2(CCO)CCN(c3ncccn3)C2)o1 (configuration not stated) | 602 s
COc1cc2c(cc1O)CC1c3c(cc(O)c(OC)c3-2)CCN1C (configuration not stated) | 628 s
CCS(=O)(=O)c1ccc2c(c1)N(Cc1nc(-c3cccc(C)c3)no1)C(=O)CO2 | 926 s
CCc1onc(C)c1C1CCCN1Cc1cc(OC)c(O)c(OC)c1 (configuration not stated) | 587 s
COc1ccc(-c2noc(-c3nc(Cc4ccc(F)cc4)no3)n2)cc1 | 1170 s
O=C(CCSc1nnnn1-c1ccccc1)Nc1ccc2c(c1)OCO2 | 794 s
CCc1nc2ccccc2c(=O)n1Cc1noc(-c2ccc3c(c2)OCO3)n1 | 964 s
O=S(=O)(Cc1ccccc1)N1CCC[C@H]1c1nc(-c2ccc(F)cc2)n[nH]1 | 819 s
CCCCNC(=O)Cn1c(=O)c2cnc(-c3ccc(Cl)cc3)nc2n(CC)c1=O | 1050 s
CSCc1csc(NC(=O)NCc2ccc(F)cc2)n1 | 754 s
Cn1cc(C2=CCN(CC(=O)N3CCN(c4ccc(F)cc4)CC3)CC2)cn1 | 612 s
CC(=O)N1CCc2nn(C)c(=O)n2CC1 | 543 s
COc1cc(NC(=O)N2CCCN(c3ccc(=O)n(-c4ccc(F)cc4)n3)CC2)cc(OC)c1OC | 702 s
CC(C)NC(=O)c1cn(-c2ccc(-c3nc(C(C)(C)C)no3)cn2)cn1 | 970 s
O=C(CN1C(=O)CC(c2ccccc2)S(=O)(=O)c2ccccc21)Nc1ccc(F)cc1F (configuration not stated) | 906 s
CCOc1ccc(NC(=O)Cn2cccc2-c2nnc(C3CCC3)o2)cc1 | 912 s
COc1cc2oc(=O)c(CC(=O)N3CCN(c4ccccn4)CC3)c(C)c2cc1OC | 588 s
CC(C)n1cnc2cc(CNC(=O)c3c(F)cccc3Cl)ccc21 | 617 s
CCOc1ccc(C(=O)n2nc(C)c(S(=O)(=O)N3CCCCC3)c2C)cc1 | 997 s

More lines, now with the values ahead:

RP-LC retention time | SMILES
787 s | CCc1nc(-c2cc(S(=O)(=O)NCC(=O)N3CCCC3)c(C)s2)no1
978 s | COc1cc(OC)cc(-c2nnc(Cc3nc(-c4ccc5c(c4)OCO5)no3)o2)c1
621 s | CCN(CC)CCCNC(=O)C(C)n1nc(C)c2c(C)n(-c3ccccc3)nc2c1=O (configuration not stated)
682 s | Cc1ccc2oc(-c3noc(C(=O)NCCN(C)C)n3)c(C)c2c1
751 s | COC(=O)c1ccc(NC(=O)N2CCCC2c2c(C)noc2C)cc1 (configuration not stated)
578 s | CC(=O)N1CCc2cc(N3CC(C(=O)N4CCN(C5CCCCC5)CC4)CC3=O)ccc21 (configuration not stated)
700 s | COc1cc([C@@H]2c3cc4c(cc3[C@H](O)[C@@H](CO)[C@@H]2C(=O)NCc2ccccc2)OCO4)cc(OC)c1OC
794 s | CCC(=O)Nc1cnc(-c2ccc(F)cc2)nc1
882 s | CCN1C(=O)c2cccnc2Sc2cc(NC(=O)COc3ccc(F)c(F)c3)ccc21
611 s | O=C(COc1ccccc1F)NC1CC(=O)N(C2CC2)C1 (configuration not stated)
739 s | COc1ccc(F)cc1S(=O)(=O)N1CC(F)(F)C[C@H]1CN1CCc2ccccc2C1
774 s | Cc1ccc(NS(=O)(=O)c2cn(C)c3ncccc23)cc1
887 s | CCn1cc(C(=O)Nc2ccc(C)cc2)c(S(=O)(=O)N2CCSCC2)n1
887 s | Cc1cc(C)cc(C(=O)N2CCC(COc3ccc(C(=O)NC4CC4)cc3)CC2)c1
744 s | CCCN(CCC)S(=O)(=O)c1cccc(-c2cn3ccc(C)cc3n2)c1
550 s | O=C(NCc1ccccn1)C1CCCN(C(=O)NCc2cccs2)C1 (configuration not stated)
605 s | Cc1ccccc1-c1nc2cnccn2c1NCCC(=O)NC(C)C
1270 s | CCN(CC)S(=O)(=O)c1cc(-c2nc(C(C)C)cs2)sc1C
590 s | COc1cc2c(cc1OC)C(C(=O)N1CCN(c3ccccn3)CC1)C1c3ccccc3CCN1C2=O (configuration not stated)
813 s | CCOCCCNC(=O)c1nc(Nc2ccc(CC)cc2)c2ccccc2n1

RP-LC retention time | SMILES
931 s | CCS(=O)(=O)Nc1ccc(-c2noc(COc3ccc(F)cc3)n2)cc1
963 s | CC1Cc2ccccc2N1C(=O)Cn1c(=O)n(C(C)C)c2ccc(S(=O)(=O)N3CCCC3)cc21 (configuration not stated)
585 s | CCNc1cc(N2CCCC(CCC(=O)NCc3cccc(F)c3)C2)ncn1 (configuration not stated)
637 s | O=C(NC1CCCC1)c1cccnc1N1CCOCC1
819 s | CSc1ccc(NC(=O)C2CCCN(c3cnc4nc(C)c(C)nc4c3)C2)cc1 (configuration not stated)
865 s | CC1CCN(S(=O)(=O)c2ccc(-c3nnc(C(=O)NCC4CCCO4)o3)cc2)CC1 (configuration not stated)
822 s | CCCN(CCC)C(=O)C(CCC(=O)O)NC(=O)c1ccccc1 (configuration not stated)
808 s | O=C(Nc1ccc2c(c1)OCO2)c1cn(-c2cc(N3CCCC3)ncn2)cn1
604 s | Cc1cc(N2CCN(C)CC2)nc2ccc(NC(=S)N3CCC(C)CC3)cc12
717 s | Cc1ccc2oc(-c3noc(C(=O)NCCCN4CCCC4)n3)c(C)c2c1
674 s | Cn1nc(C(=O)N2CCCC(C(=O)NC3CC3)C2)c2c1CCN(C(=O)COc1ccc(F)cc1)C2 (configuration not stated)
648 s | Cn1ncc(N2CCC(C(=O)Nc3ccccc3)C2)cc1=O (configuration not stated)
792 s | COc1ccc(CNC(=O)C2CCCN(c3nccnc3Sc3ccc(C)cc3)C2)c(OC)c1 (configuration not stated)
651 s | O=C(CC1CCCN(c2cnn(CC3CC3)c(=O)c2)C1)NC1CC1 (configuration not stated)
750 s | c1ccc(-c2noc(-c3ccccc3OC3CCN(Cc4nccs4)C3)n2)cc1 (configuration not stated)
653 s | Cc1ccc2c(=O)c(C(=O)N3CCOCC3)cn(CC(=O)NC3CCCCC3)c2n1
625 s | O=C(c1ccncc1)N1CCC2(CC1)N=C(c1ccc(Cl)cc1)NO2
648 s | O=C1CCCC2=C1C(c1ccco1)N(C(=O)CCC(=O)N1CCOCC1)c1ccccc1N2 (configuration not stated)
930 s | CC(C)c1csc(-c2csc(S(=O)(=O)NCc3ccc(N(C)C)cc3)c2)n1
